Test results taken from US5721103A, “Trienoic retinoid compounds and methods” (Ligand Pharmaceuticals Incorporated, priority 1995, dated 1998).

What was measured:
Type in all cases: cell-based
RARs and RXRs = experiment: Co-transfection assay, RAR and RXR receptors taken together; settings: for RAR activity (in words): RARs; for activity on the RARs or RXRs (in words): any of the RARs or RXRs
Method: Utilizing the "cis-trans" or "co-transfection" assay described by Evans et al., Science, 240:889-95 (May 13, 1988), the disclosure of which is herein incorporated by reference, the retinoid compounds of the present invention were tested and found to have strong, specific activity as either selective RAR agonists, selective RXR agonists, or as pan-agonist activators of both RAR and RXR receptors. This assay is described in further detail in U.S. Pat. Nos. 4,981,784 and 5,071,773, the disclosures of which are incorporated herein by reference.
In the co-transfection assay, a cloned cDNA for an IR (e.g., human RARα, RARβ, RXRγ) under the control of a constitutive promoter (e.g., the SV 40 promoter) is introduced by transfection (a procedure to induce cells to take up foreign genes) into a background cell substantially devoid of endogenous IRs. This introduced gene directs the recipient cells to make the IR protein of interest. A second gene is also introduced (co-transfected) into the same cells in conjunction with the IR gene. This second gene, comprising the cDNA for a reporter protein, such as firefly luciferase (LUC), is controlled by an appropriate hormone responsive promoter containing a hormone response element (HRE). This reporter plasmid functions as a reporter for the transcription-modulating activity of the target IR. Thus, the reporter acts as a surrogate for the products (mRNA then protein) normally expressed by a gene under control of the target receptor and its native hormone.
The co-transfection assay can detect small molecule agonists or antagonists of target IRs. Exposing the transfected cells to an agonist ligand compound increases reporter activity in the transfected cells. This activity can be conveniently measured, e.g., by increasing luciferase production, which reflects compound-dependent, IR-mediated increases in reporter transcription. […] . Increasing concentrations of a suspected antagonist will decrease the reporter signal (e.g., luciferase production). The co-transfection assay is therefore useful to detect both agonists and antagonists of specific IRs. Furthermore, it determines not only whether a compound interacts with a particular IR, but whether this interaction mimics (agonizes) or blocks (antagonizes) the effects of the native regulatory molecules on target gene expression, as well as the specificity and strength of this interaction.
To determine RAR and/or RXR agonist activity of the compounds of the present invention, the CV-1 cells were transiently transfected by calcium phosphate coprecipitation according to the procedure of Berger et al., 41 J. Steroid Biochem. Mol. Biol., 733 (1992) with the following receptor expressing plasmids: pRShRARα: Giguere et at., 330 Nature, 624 (1987); pRShRARβ and pRShRARγ, Ishikawa et al., 4 Mol. Endocrin., 837 (1990); pRShRXRα, Mangelsdorf et at., 345 Nature, 224 (1990); and pRSmRXRβ and pRSmRXRγ, Mangelsdorf et al., 6 Genes & Devel., 329 (1992), the disclosures of which are herein incorporated by reference. Each of these receptor expressing plasmids was co-transfected at a concentration of 5 ng/well, along with a basal reporter plasmid at 100 ng/well, the internal control plasmid pRS-β-Gal at 50 ng/well and filler DNA, pGEM at 45 ng/well.

RARα = biological target: T1, RARα (Homo sapiens, UniProt P10276); experiment: Co-transfection assay, RARα agonist activity; settings: CV-1 cells, 40 hours, read-out: Potency (EC50) RARα
T1 construct: expressed in transfected cells; host or cells: CV-1 (African green monkey kidney)
T1 sequence (P10276 1-462): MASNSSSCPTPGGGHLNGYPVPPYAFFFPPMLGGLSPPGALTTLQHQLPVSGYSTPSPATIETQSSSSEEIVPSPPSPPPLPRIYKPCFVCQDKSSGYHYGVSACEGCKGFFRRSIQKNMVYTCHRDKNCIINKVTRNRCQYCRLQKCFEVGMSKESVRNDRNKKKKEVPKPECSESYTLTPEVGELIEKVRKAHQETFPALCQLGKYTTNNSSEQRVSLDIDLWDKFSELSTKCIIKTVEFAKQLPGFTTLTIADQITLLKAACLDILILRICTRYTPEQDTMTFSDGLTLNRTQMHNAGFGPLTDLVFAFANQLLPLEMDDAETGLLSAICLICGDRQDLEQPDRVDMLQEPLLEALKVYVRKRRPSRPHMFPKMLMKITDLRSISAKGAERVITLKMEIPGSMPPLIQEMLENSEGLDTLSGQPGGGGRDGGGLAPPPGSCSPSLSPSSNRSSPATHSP

RARγ = biological target: T2, RARγ (Homo sapiens, UniProt P13631); experiment: Co-transfection assay, RARγ agonist activity; settings: CV-1 cells, 40 hours, read-out: Potency (EC50) RARγ
T2 construct: expressed in transfected cells; host or cells: CV-1 (African green monkey kidney)
T2 sequence (P13631 1-454): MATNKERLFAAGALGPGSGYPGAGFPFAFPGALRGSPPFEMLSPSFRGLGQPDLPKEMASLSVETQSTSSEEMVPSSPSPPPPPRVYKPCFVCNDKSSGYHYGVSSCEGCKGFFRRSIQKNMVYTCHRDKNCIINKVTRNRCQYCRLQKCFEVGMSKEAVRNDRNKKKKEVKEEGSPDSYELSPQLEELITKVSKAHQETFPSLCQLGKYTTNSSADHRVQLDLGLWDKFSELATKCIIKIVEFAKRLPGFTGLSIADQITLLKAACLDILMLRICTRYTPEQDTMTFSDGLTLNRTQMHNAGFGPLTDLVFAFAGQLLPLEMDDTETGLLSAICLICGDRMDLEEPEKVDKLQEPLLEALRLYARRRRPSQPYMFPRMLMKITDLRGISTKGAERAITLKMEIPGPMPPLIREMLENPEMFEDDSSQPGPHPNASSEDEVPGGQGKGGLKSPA

RXRα = biological target: T3, RXRα (Homo sapiens, UniProt P19793); experiment: Co-transfection assay, RXRα agonist activity; settings: CV-1 cells, 40 hours, read-out: Potency (EC50) RXRα
T3 construct: expressed in transfected cells; host or cells: CV-1 (African green monkey kidney)
T3 sequence (P19793 1-462): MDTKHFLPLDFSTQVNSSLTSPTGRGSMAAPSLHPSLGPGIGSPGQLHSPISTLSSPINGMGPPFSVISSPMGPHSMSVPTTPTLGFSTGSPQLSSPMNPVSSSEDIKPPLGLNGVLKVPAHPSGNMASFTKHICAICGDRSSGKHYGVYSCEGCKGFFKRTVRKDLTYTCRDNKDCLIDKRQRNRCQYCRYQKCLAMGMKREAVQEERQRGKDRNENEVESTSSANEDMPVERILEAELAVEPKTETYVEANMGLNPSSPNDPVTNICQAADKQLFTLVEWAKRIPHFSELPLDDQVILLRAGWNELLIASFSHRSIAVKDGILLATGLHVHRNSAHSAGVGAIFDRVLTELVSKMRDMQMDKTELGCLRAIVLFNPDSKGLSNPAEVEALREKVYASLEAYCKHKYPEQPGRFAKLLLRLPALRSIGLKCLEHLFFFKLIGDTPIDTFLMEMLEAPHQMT

RXRβ = biological target: T4, RXRβ (Mus musculus, UniProt P28704); experiment: Co-transfection assay, RXRβ agonist activity; settings: CV-1 cells, 40 hours, read-out: Potency (EC50) RXRβ
T4 construct: expressed in transfected cells; host or cells: CV-1 (African green monkey kidney)
T4 sequence (P28704 1-520): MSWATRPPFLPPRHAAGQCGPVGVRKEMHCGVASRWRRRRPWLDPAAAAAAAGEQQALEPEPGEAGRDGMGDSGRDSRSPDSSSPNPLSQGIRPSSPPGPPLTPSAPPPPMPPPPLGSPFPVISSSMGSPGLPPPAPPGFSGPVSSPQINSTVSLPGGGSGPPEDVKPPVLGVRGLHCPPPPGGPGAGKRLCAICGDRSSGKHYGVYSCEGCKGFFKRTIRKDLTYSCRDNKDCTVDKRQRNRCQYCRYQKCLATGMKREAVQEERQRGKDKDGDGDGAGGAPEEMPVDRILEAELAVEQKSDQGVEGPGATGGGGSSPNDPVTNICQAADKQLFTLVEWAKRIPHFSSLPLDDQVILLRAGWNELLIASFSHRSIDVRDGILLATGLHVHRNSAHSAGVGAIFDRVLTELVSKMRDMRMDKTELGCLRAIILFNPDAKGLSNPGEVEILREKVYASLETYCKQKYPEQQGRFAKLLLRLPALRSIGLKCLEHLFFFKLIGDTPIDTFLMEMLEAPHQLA

RXRγ = biological target: T5, RXRγ (Mus musculus, UniProt P28705); experiment: Co-transfection assay, RXRγ agonist activity; settings: CV-1 cells, 40 hours, read-out: Potency (EC50) RXRγ
T5 construct: expressed in transfected cells; host or cells: CV-1 (African green monkey kidney)
T5 sequence (P28705 1-463): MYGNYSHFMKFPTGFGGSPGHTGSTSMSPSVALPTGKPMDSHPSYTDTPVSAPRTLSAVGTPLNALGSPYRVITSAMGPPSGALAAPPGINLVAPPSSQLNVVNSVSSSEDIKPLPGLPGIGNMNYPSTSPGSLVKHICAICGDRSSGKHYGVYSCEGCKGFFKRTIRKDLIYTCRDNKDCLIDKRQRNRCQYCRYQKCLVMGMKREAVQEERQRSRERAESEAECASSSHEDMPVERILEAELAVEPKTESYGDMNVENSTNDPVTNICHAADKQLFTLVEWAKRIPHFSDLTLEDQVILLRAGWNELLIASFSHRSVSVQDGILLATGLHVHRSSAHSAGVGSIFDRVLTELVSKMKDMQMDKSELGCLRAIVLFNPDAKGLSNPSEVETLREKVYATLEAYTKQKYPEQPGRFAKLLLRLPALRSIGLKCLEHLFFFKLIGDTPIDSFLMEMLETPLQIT

RARβ = biological target: T6, RARβ (Homo sapiens, UniProt P10826); experiment: Co-transfection assay, RARβ agonist activity; settings: CV-1 cells, 40 hours, read-out: Potency (EC50) RARβ
T6 construct: expressed in transfected cells; host or cells: CV-1 (African green monkey kidney)
T6 sequence (P10826 1-448 isoform P10826-2): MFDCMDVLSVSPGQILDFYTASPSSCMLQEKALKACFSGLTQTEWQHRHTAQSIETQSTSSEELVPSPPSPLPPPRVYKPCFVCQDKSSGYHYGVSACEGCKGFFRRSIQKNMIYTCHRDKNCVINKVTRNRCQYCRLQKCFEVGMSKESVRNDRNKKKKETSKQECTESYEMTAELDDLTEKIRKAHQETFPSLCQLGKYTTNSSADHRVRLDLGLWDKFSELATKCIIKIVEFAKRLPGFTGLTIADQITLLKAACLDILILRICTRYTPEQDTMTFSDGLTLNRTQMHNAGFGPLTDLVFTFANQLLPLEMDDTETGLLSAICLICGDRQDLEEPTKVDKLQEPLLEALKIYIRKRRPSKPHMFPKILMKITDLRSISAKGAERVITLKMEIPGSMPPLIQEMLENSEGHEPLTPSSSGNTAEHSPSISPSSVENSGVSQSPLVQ

CC(/C=C/C=C1\CCOc2c1cc(C(C)(C)C)cc2C(C)(C)C)=C\C(=O)O [Compound 39, (2E,4E,6E)-6-(6,8,-Di-t-butylchroman-4-ylidene)-3-methylhexa-2,4,6-trienoicacid]
RAR activity (in words) (RARs and RXRs): extremely potent RAR active compounds

CCc1cc(C)c(\C(C)=C/C=C/C(C)=C/C(=O)O)cc1CC [Compound 54]
EC50 (RARα): > 10000 nM
EC50 (RARγ): 320 nM
EC50 (RXRα): 58 nM
EC50 (RXRβ): 28 nM
EC50 (RXRγ): 78 nM
EC50 (RARβ): 130 nM

CC(/C=C/C=C(\C)c1cc(C(F)(F)F)cc(C(F)(F)F)c1)=C\C(=O)O [Compound 41, (2E, 4E, 6E)-7-(3,5-Di-trifluoromethylphenyl)-3-methylocta-2,4,6-trienoic acid]
RAR activity (in words) (RARs and RXRs): extremely potent RAR active compounds

COC(/C=C/C=C(\C)c1ccc(C(C)(C)C)cc1)=C/C(=O)O [D, (2E,4E,6E)-3-methoxy-7-(4-t-butylphenyl)octa-2,4,6-trienoic acid, reference compound]
activity on the RARs or RXRs (in words) (RARs and RXRs): no, or virtually no, activity

COc1cc(C)c(/C=C/C=C/C=C(\C)C(=O)O)c(C)c1C [C, (2E,4E,6E)-2-methyl-7-(2,3,6-trimethyl-4-methoxyphenyl)hepta-2,4,6-trienoic acid, reference compound]
activity on the RARs or RXRs (in words) (RARs and RXRs): no, or virtually no, activity

COc1ccc(/C(C)=C/C=C/C(C)=C/C(=O)O)cc1OC [A, (2E,4E,6E)-3-methyl-7-(3,4-dimethoxyphenyl)octa-2,4,6-trienoic acid, reference compound]
activity on the RARs or RXRs (in words) (RARs and RXRs): no, or virtually no, activity

COc1c(C(C)(C)C)cc(/C(C)=C/C=C/C(C)=C/C(=O)O)cc1C(C)(C)C [Compound 47, (2E, 4E, 6E) -3-Methyl-7-(3,5-di-t-butyl-4-methoxyphenyl)octa-2,4,6-trienoic acid]
RAR activity (in words) (RARs and RXRs): extremely potent RAR active compounds
selectivity among RARs (in words) (RARs and RXRs; RARβ and RARγ): selectivity on RARβ and RARγ

CCC/C(=C/C=C/C(C)=C/C(=O)O)c1cc(C(C)(C)C)cc(C(C)(C)C)c1 [Compound 28, (2E, 4E, 6Z)-7-(3,5-Di-t-butylphenyl)-3-methyldeca-2,4,6-trienoic acid]
RXR activity (in words) (RARs and RXRs; RXRs): very potent and selective RXR active compound

C/C(=C/C=C/C(C)=C/C(=O)O)c1cc(C(C)C)cc(C(C)C)c1 [Compound 43, (2E, 4E, 6Z)-7-(3,5-Di-isopropylphenyl)-3-methylocta-2,4,6-trienoic acid]
potency profile in comparison to 9-cis retinoic acid (in words) (RARs and RXRs; versus 9-cis, pan-agonist): superior potency profile

COc1ccc(/C(C)=C/C=C/C(C)=C/C(=O)O)cc1 [B, (2E,4E,6E)-3-methyl-7-(4-methoxyphenyl)octa-2,4,6-trienoic acid, reference compound]
activity on the RARs or RXRs (in words) (RARs and RXRs): no, or virtually no, activity
